Assays:
Delta-5-Desaturase (D5D) = target: T1, Delta-5-Desaturase (D5D) (Mus musculus, UniProt Q920L1); assay: In vivo measurement of Delta-5-Desaturase inhibitory activity (plasma AA/DGLA ratio in DIO mice); conditions: single oral dose 30 mg/kg, relative to vehicle group
T1 construct: tissue Jackson Laboratories strain #3800050; host or cells: whole animal (DIO mice)
T1 sequence (Q920L1 1-447): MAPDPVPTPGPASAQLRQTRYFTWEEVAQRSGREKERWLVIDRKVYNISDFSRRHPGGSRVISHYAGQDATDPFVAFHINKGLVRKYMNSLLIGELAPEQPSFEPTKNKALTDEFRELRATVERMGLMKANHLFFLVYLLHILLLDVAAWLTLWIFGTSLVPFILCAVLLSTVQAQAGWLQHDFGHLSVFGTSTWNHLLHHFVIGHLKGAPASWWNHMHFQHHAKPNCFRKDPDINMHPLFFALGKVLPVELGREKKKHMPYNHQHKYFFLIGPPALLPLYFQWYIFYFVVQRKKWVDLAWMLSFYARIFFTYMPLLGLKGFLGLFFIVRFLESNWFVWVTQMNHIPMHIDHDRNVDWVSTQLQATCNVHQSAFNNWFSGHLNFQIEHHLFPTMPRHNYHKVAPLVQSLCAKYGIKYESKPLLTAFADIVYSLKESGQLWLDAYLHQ
Description: In Vivo Measurement of Delta-5-Desaturase Inhibitory Activity
Diet-induced obese (DIO; Jackson Laboratories strain #[…]) mice were used to screen for pharmacodynamic (PD) activity of test compounds. Generally, 14 to 24 week old DIO mice, were administered test compounds formulated in the vehicle of 2% hydroxypropyl methylcellulose (HPMC) and 1% Tween80. Animals were dosed on body weight by oral gavage with a single dose (30 mg/kg) for PD studies. Necropsy included plasma collection for PUFA analysis. 10 μl of plasma or standards diluted in surrogate matrix (65 g/l bovine serum albumin in Dulbecco's phosphate-buffered saline) were mixed with 10 μl of an internal standard (100 μM alpha-linolenic acid-d14 (ALA-d14, Cayman Chemical)) in a 96 well plate. 100 μl of 2N NAOH was added to the mixture for subsequent saponification at 65° C. for 1 hour. The mixture was then acidified with 50 μl of formic acid followed by two consecutive hexane extractions. Hexane (500 μl) was added and the mixture thoroughly mixed by vortexing, followed by centrifugation at 4,000 rpm for 15 min. The hexane phase was transferred to a new 1 ml 96 well plate and the remaining aqueous layer was extracted with hexane. The organic extracts were combined and the solvent was removed by placing the plate under nitrogen gas at 55° C. 250 μl of 90% methanol was added to the plate followed by vortexing for 2 minutes. 200 μl of the samples were transferred to a new 96 well polypropylene plate. The samples were analyzed on a LC-MS/MS for the following PUFAs: arachidonic acid (AA), dihomo-gamma-linolenic acid (DGLA), with ALA-d14 as the internal standard. Description of the LC-MS/MS method: 5 μl of sample was injected onto a Poroshell 120 EC-C18 3.0×50 mm, 1.9 μm id column. […] The PUFA peak areas were quantified by using the SCIEX Analyst software. […] The relative decrease of the AA/DGLA ratio of the test compound administered group relative to the vehicle administered group was calculated and used as an index for the degree of D5D inhibition. […]

[1] = test system: Diet-Induced Obese (DIO) mice; assay: Assessment of D5D inhibitor in Diet-Induced Obese (DIO) mice; type: in vivo, Male C57BL/6J DIO mice; conditions: for Fat mass / Lean mass: day 78, EchoMRI; for Blood glucose: day 81, non-fasted; for AA / DGLA: day 81, non-fasted plasma; for Body weight / Liver weights / epididymal WAT / inguinal WAT / mesenteric WAT: day 84; for Adiponectin / Cholesterol / Insulin / LDL cholesterol / Leptin / Resisten / Triglycerides: day 84, 4-hour fasted plasma
Text: Assessment of D5D Inhibitor in Diet-Induced Obese (DIO) Mice
Male C57BL/6J DIO mice (Jackson Laboratories, Stock No.: 380050) were fed high-fat diet (Research Diets, Inc., D12492) for 12 weeks. All animals were given free access to water and chow. Animals were acclimated to per os dosing for 3 days prior to the start of the experiment. Animals were randomized on body weight, fat mass, lean mass, and blood glucose concentrations in to groups of 8 to 10 animals per group. Animals were twice daily dosed per os with either: vehicle (2% hydroxypropyl methylcellulose and 1% tween 80 in water), Example 2 at 10 mg/kg, or 30 mg/kg (formulated in 2% hydroxypropyl methylcellulose and 1% tween 80 in water), or Example 45 at 3 mg/kg, or 10 mg/kg (formulated in 2% hydroxypropyl methylcellulose and 1% tween 80 in water). Three-day average (Example 2) or daily average (Example 45) food consumption was measured at the indicated times as shown in Table 17 and Table 18. Body composition (EchoMRI) was determined on day 78 for Example 2 and day 22 for Example 45. For Example 2, a non-fasted blood collection was performed on day 81; blood glucose was immediately measured, and plasma samples created from the remaining blood and used to measure DGLA and AA concentrations. On day 84, a 4-hour fasted blood collection was performed, and plasma samples were created from the blood and used to measure cholesterol, triglycerides, low-density lipoprotein (LDL) cholesterol, insulin, and adipokine (adiponectin, leptin, and resistin) levels. For Example 45, 4 hour fasted blood samples were collected on day 25 and blood glucose was measured immediately and the plasma samples created from the remaining blood were used to measure cholesterol, triglycerides, LDL cholesterol, insulin, DGLA and AA concentration. At the end of the studies, liver, epididymal white adipose tissue, inguinal white adipose tissue, mesenteric (only Example 2) white adipose tissue weights were recorded. Data was analyzed using GraphPad Prism v 7.04.
The D5D inhibitor dose-dependently led to weight loss over the course of the experiment (Table 17 and Table 18) compared to vehicle controls. Consistently fat mass was reduced, along with lower inguinal, epididymal and mesenteric white adipose tissue (WAT) weights at necropsy. Blood glucose and plasma insulin levels were both reduced by the D5D inhibitor, along with reductions in plasma cholesterol and triglycerides. Evidence of target engagement was established by observing increases in plasma DGLA and decreases in plasma AA.

[2] = Example 2 10 mg/kg twice daily per os
[3] = Example 2 30 mg/kg twice daily per os

In the case of Cc1nn2c(=O)c(-c3cnn(CC(F)(F)C(F)(F)F)c3)c(C(F)(F)F)nc2s1 [Example 2, 2-methyl-6-[1-(2,2,3,3,3-pentafluoropropyl)-1H-pyrazol-4-yl]-7-(trifluoromethyl)-5H-[1,3,4]thiadiazolo[3,2-a]pyrimidin-5-one], the “Average % D5D Inhibition expressed as Plasma Endogenous AA/DGLA Ratio” value (Delta-5-Desaturase (D5D)) is reported as 66%, the Fat mass [1, 2] is reported as 11.4 ± 0.6 g and the Lean mass [1, 2] is reported as 26.4 ± 0.6 g. The Blood glucose [1, 2] was 165.3 ± 4.6 mg/dL, the AA [1, 2] was 14.5 ± 0.9 µg/mL and the DGLA [1, 2] was 167.8 µg/mL. The Body weight [1, 2] was 38.1 ± 1.0 g, the Liver weights [1, 2] was 3.0 ± 0.2 g and the “epididymal WAT” value [1, 2] was 1.2 ± 0.1 g. The “inguinal WAT” value [1, 2] was 1.2 ± 0.1 g, the “mesenteric WAT” value [1, 2] was 0.4 ± 0.0 g and the Adiponectin [1, 2] was 48.3 ± 17.7 ng/mL. It also gave a Cholesterol [1, 2] of 224.5 ± 7.3 mg/dL, an Insulin [1, 2] of 1.8 ± 0.3 ng/mL and an LDL cholesterol [1, 2] of 85.9 ± 3.8 mg/dL. The Leptin [1, 2] was 10.7 ± 3.6 ng/mL, the Resisten [1, 2] was 0.9 ± 0.2 ng/mL and the Triglycerides [1, 2] was 14.3 ± 1.2 mg/dL. It also gave a Food consumption ([1]; Example 2 10 mg/kg twice daily per os, days 0-2, three-day average) of 2.5 ± 0.2 g/day, a Food consumption ([1]; Example 2 10 mg/kg twice daily per os, days 70-72, three-day average) of 2.5 ± 0.1 g/day and a Fat mass [1, 3] of 5.7 ± 0.6 g. For the same compound, the Lean mass [1, 3] was 26.1 ± 0.4 g, the Blood glucose [1, 3] was 152.1 mg/dL and the AA [1, 3] was 10.7 ± 0.6 µg/mL. The DGLA [1, 3] was 137.7 µg/mL, the Body weight [1, 3] was 32.3 ± 0.9 g and the Liver weights [1, 3] was 3.2 ± 0.1 g. The “epididymal WAT” value [1, 3] was 0.75 ± 0.1 g, the “inguinal WAT” value [1, 3] was 0.5 ± 0.1 g and the “mesenteric WAT” value [1, 3] was 0.2 ± 0.0 g. The Adiponectin [1, 3] was 51.0 ± 24.4 ng/mL, the Cholesterol [1, 3] was 207.5 mg/dL and the Insulin [1, 3] was 1.4 ± 0.2 ng/mL. It also gave an LDL cholesterol [1, 3] of 80.6 ± 3.9 mg/dL, a Leptin [1, 3] of 3.2 ± 1.6 ng/mL and a Resisten [1, 3] of 0.7 ± 0.2 ng/mL. It also gave a Triglycerides [1, 3] of 12.8 ± 1.0 mg/dL, a Food consumption ([1]; Example 2 30 mg/kg twice daily per os, days 0-2, three-day average) of 2.5 ± 0.2 g/day and a Food consumption ([1]; Example 2 30 mg/kg twice daily per os, days 70-72, three-day average) of 2.7 ± 0.1 g/day.
